Measured values: patent US20260146035A1, “FUSED BICYCLIC COMPOUNDS AND THEIR USE AS MER AND AXL INHIBITORS” (DONG-A ST CO., LTD., priority 2022, published 2026)
Where two headings read alike, the source gives them in different places.

Legend:
[1] = molecular target: T1, human AXL (473-end) (Homo sapiens, UniProt P30530); assay: HTRF kinase activity biochemical assay, AXL; details: 10 μM ATP, 30 minutes pre-incubation
T1 construct: human AXL (473-end); purchased SignalChem, Canada
T1 sequence (P30530 473-894 limits assumed): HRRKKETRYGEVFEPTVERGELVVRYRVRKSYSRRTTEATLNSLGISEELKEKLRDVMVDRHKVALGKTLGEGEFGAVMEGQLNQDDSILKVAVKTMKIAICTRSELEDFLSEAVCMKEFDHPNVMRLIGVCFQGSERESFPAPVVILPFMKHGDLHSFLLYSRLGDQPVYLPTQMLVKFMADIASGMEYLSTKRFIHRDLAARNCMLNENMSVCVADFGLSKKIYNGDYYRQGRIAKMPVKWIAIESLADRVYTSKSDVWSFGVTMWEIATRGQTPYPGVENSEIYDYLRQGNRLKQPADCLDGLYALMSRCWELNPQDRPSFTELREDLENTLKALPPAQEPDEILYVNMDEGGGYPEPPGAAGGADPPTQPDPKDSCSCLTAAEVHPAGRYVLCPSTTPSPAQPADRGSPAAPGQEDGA

[2] = molecular target: T2, human TYRO3 (455-end) (Homo sapiens, UniProt Q06418); assay: HTRF kinase activity biochemical assay, TYRO3
T2 construct: TYRO3 (455-end); purchased SignalChem, Canada
T2 sequence (Q06418 455-890 limits assumed): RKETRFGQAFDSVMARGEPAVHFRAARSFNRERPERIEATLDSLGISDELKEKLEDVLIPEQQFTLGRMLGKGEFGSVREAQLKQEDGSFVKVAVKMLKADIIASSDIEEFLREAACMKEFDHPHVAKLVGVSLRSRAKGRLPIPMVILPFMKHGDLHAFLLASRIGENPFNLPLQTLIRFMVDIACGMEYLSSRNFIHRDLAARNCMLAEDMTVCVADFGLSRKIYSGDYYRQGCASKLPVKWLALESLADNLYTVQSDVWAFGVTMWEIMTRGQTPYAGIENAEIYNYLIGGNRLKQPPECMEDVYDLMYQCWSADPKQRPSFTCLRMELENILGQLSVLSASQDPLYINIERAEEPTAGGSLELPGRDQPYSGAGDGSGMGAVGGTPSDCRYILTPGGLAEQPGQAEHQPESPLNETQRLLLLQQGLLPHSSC

[3] = molecular target: T3, human MER (528-end) (Homo sapiens, UniProt Q12866); assay: HTRF kinase activity biochemical assay, MER; details: 10 μM ATP, 30 minutes pre-incubation; read-out: HTRF MERTK IC50
T3 construct: human MER (528-end); purchased Camnabio, Japan
T3 sequence (Q12866 528-999 limits assumed): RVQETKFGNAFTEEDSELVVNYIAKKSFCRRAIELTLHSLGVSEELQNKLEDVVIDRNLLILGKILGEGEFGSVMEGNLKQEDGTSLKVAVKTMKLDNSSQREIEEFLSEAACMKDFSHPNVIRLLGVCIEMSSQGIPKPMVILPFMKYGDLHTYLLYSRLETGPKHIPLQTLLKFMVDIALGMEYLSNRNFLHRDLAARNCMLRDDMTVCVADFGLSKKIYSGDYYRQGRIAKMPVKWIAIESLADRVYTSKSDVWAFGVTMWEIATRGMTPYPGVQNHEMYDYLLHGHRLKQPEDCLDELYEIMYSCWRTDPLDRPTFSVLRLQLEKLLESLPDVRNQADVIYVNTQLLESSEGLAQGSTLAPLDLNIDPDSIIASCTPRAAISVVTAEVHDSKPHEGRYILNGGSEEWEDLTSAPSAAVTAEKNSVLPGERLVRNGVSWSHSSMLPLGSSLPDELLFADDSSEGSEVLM

[4] = 10 μM ATP, 30 minutes pre-incubation, read-out: HTRF TYRO IC50

SMILES | IC50 [1] [nM] | IC50 [2, 4] [nM] | IC50 [3] [nM] | IC50 [2] [nM]
Cc1cn(C)c2ccc(-c3ccc(CO[C@H]4CCC[C@@H]4NC(=O)c4cc(-c5cnn(C)c5)cnc4N)cc3)cc12 [Example 54, 2-amino-N-[(1S,2S)-2-{[4-(1,3-dimethyl-1H-indol-5-yl)phenyl]methoxy}cyclopentyl]-5-(1-methyl-1H-pyrazol-4-yl)pyridine-3-carboxamide] | 10 to 100 | > 1000 | 10 to 100 | 
CN1CC(C(=O)NC2Cc3ccc(-c4ccc(CO[C@H]5CCC[C@@H]5NC(=O)c5cc(-c6cnn(C)c6)cnc5N)cc4)cc3C2)C1 (stereo partly drawn) [Example 11, 2-amino-N-{(1S,2S)-2-[(4-{2-[(1-methylazetidine-3-carbonyl)amino]-2,3-dihydro-1H-inden-5-yl}phenyl)methoxy]cyclopentyl}-5-(1-methyl-1H-pyrazol-4-yl)pyridine-3-carboxamide] | 10 to 100 | > 1000 | < 10 | 
Nc1ncc(C(F)(F)F)cc1C(=O)N[C@H]1CCC[C@@H]1OCc1ccc(-c2ccc3c(c2)CCCC3N2CCN(CCO)CC2)cc1 (stereo partly drawn) [Example 124, 2-amino-N-{(1S,2S)-2-[(4-{5-[4-(2-hydroxyethyl)piperazin-1-yl]-5,6,7,8-tetrahydronaphthalen-2-yl}phenyl)methoxy]cyclopentyl}-5-(trifluoromethyl)pyridine-3-carboxamide] | < 10 | 100 to 1000 | < 10 | 
CN1CCN(C2CC(C)(C)c3cc(-c4ccc(CO[C@H]5CCC[C@@H]5NC(=O)c5cc(-c6cccnc6F)cnc5N)cc4)ccc32)CC1 (stereo partly drawn) [Example 108, 6-amino-N-[(1S,2S)-2-({4-[3,3-dimethyl-1-(4-methylpiperazin-1-yl)-2,3-dihydro-1H-inden-5-yl]phenyl}methoxy)cyclopentyl]-2′-fluoro[3,3′-bipyridine]-5-carboxamide] | < 10 | 10 to 100 | < 10 | 
Cn1cc(-c2cnc(N)c(C(=O)N[C@H]3COC[C@@H]3OCc3ccc(-c4ccc5c(c4)CC[C@@H]5N4CCN(CCO)CC4)cc3)c2)cn1 [Example 45, 2-amino-N-{(3S,4R)-4-[(4-{(1S)-1-[4-(2-hydroxyethyl)piperazin-1-yl]-2,3-dihydro-1H-inden-5-yl}phenyl)methoxy]oxolan-3-yl}-5-(1-methyl-1H-pyrazol-4-yl)pyridine-3-carboxamide] | < 10 | 100 to 1000 | < 10 | 
CC1(C)CN(C2CCN(CCO)CC2)c2ccc(-c3ccc(CO[C@H]4CCC[C@@H]4NC(=O)c4cc(-c5ccc(F)nc5)cnc4N)cc3)cc21 [Example 31, 6-amino-6′-fluoro-N-{(1S,2S)-2-[(4-{1-[1-(2-hydroxyethyl)piperidin-4-yl]-3,3-dimethyl-2,3-dihydro-1H-indol-5-yl}phenyl)methoxy]cyclopentyl}[3,3′-bipyridine]-5-carboxamide] | < 10 | 10 to 100 | < 10 | 
CC1(C)CN(C2CCN(CCO)CC2)c2ccc(-c3ccc(CO[C@H]4COC[C@@H]4NC(=O)c4cc(-c5cccnc5F)cnc4N)cc3)cc21 [Example 49, 6-amino-2′-fluoro-N-{(3S,4R)-4-[(4-{1-[1-(2-hydroxyethyl)piperidin-4-yl]-3,3-dimethyl-2,3-dihydro-1H-indol-5-yl}phenyl)methoxy]oxolan-3-yl}[3,3′-bipyridine]-5-carboxamide] | < 10 | 100 to 1000 | < 10 | 
Cn1cc(-c2cnc(N)c(C(=O)N[C@H]3CCC[C@@H]3OCc3ccc(-c4ccc5c(c4)CCC[C@H]5N4CCN(C[C@H](O)CO)CC4)cc3)c2)cn1 [Example 170, 2-amino-N-[(1S,2S)-2-({4-[(5R)-5-{4-[(2S)-2,3-dihydroxypropyl]piperazin-1-yl}-5,6,7,8-tetrahydronaphthalen-2-yl]phenyl}methoxy)cyclopentyl]-5-(1-methyl-1H-pyrazol-4-yl)pyridine-3-carboxamide] | 10 to 100 | > 1000 | 10 to 100 | 
COc1ccnc(N)c1C(=O)N[C@H]1CCC[C@@H]1OCc1ccc(-c2ccc3c(c2)C(C)(C)CC3N2CCN(CCO)CC2)cc1 (stereo partly drawn) [Example 136, 2-amino-N-{(1S,2S)-2-[(4-{1-[4-(2-hydroxyethyl)piperazin-1-yl]-3,3-dimethyl-2,3-dihydro-1H-inden-5-yl}phenyl)methoxy]cyclopentyl}-4-methoxypyridine-3-carboxamide] | < 10 | 100 to 1000 | < 10 | 
CN1CCN([C@@H]2CC(C)(C)c3cc(-c4ccc(CO[C@H]5CCC[C@@H]5NC(=O)c5cc(-c6cnn(C)c6)cnc5N)cc4)ccc32)CC1 [Example 145, 2-amino-N-[(1S,2S)-2-({4-[(1R)-3,3-dimethyl-1-(4-methylpiperazin-1-yl)-2,3-dihydro-1H-inden-5-yl]phenyl}methoxy)cyclopentyl]-5-(1-methyl-1H-pyrazol-4-yl)pyridine-3-carboxamide] | 10 to 100 | > 1000 | 10 to 100 | 
CN1CCC(c2c[nH]c3cc(-c4ccc(CO[C@H]5CCC[C@@H]5NC(=O)c5cc(-c6cnn(C)c6)cnc5N)cc4)ccc23)CC1 [Example 15, 2-amino-N-[(1S,2S)-2-({4-[3-(1-methylpiperidin-4-yl)-1H-indol-6-yl]phenyl}methoxy)cyclopentyl]-5-(1-methyl-1H-pyrazol-4-yl)pyridine-3-carboxamide] | 100 to 1000 | > 1000 | 10 to 100 | 
CN1CCN([C@H]2CCc3cc(-c4ccc(CO[C@H]5CCC[C@@H]5NC(=O)c5cc(-c6ccn(C)c(=O)c6)cnc5N)cc4)ccc32)CC1 [Example 115, 6-amino-1′-methyl-N-[(1S,2S)-2-({4-[(1S)-1-(4-methylpiperazin-1-yl)-2,3-dihydro-1H-inden-5-yl]phenyl}methoxy)cyclopentyl]-2′-oxo-1′,2′-dihydro[3,4′-bipyridine]-5-carboxamide] | < 10 | 100 to 1000 | < 10 | 
CC1(C)C[C@H](N2CCN(CCO)CC2)c2ccc(-c3ccc(CO[C@H]4CCC[C@@H]4NC(=O)c4cc(-c5ccc(F)nc5)cnc4N)cc3)cc21 [Example 104, 6-amino-6′-fluoro-N-{(1S,2S)-2-[(4-{(1S)-1-[4-(2-hydroxyethyl)piperazin-1-yl]-3,3-dimethyl-2,3-dihydro-1H-inden-5-yl}phenyl)methoxy]cyclopentyl}[3,3′-bipyridine]-5-carboxamide] | < 10 | < 10 | < 10 | 
Nc1ncc(-c2ccc(F)nc2)cc1C(=O)N[C@H]1CCC[C@@H]1OCc1ccc(-c2ccc3c(c2)CCCC3N2CCN(CCO)CC2)cc1 (stereo partly drawn) [Example 106, 6-amino-6′-fluoro-N-{(1S,2S)-2-[(4-{5-[4-(2-hydroxyethyl)piperazin-1-yl]-5,6,7,8-tetrahydronaphthalen-2-yl}phenyl)methoxy]cyclopentyl}[3,3′-bipyridine]-5-carboxamide] | < 10 | 10 to 100 | < 10 | 
CCC1(C)CN(C2CCN(CCO)CC2)c2ccc(-c3ccc(CO[C@H]4CCC[C@@H]4NC(=O)c4cc(-c5cnn(C)c5)cnc4N)cc3)cc21 (mixture of isomers) [Example 40, 2-amino-N-{(1S,2S)-2-[(4-{3-ethyl-1-[1-(2-hydroxyethyl)piperidin-4-yl]-3-methyl-2,3-dihydro-1H-indol-5-yl}phenyl)methoxy]cyclopentyl}-5-(1-methyl-1H-pyrazol-4-yl)pyridine-3-carboxamide] | < 10 | < 10 | < 10 | 
Cn1cc(-c2cnc(N)c(C(=O)N[C@H]3CCC[C@@H]3OCc3ccc(-c4ccc5c(n4)C(C)(C)C(=O)N5C4CCN(CCO)CC4)cc3)c2)cn1 [Example 73, 2-amino-N-{(1S,2S)-2-[(4-{1-[1-(2-hydroxyethyl)piperidin-4-yl]-3,3-dimethyl-2-oxo-2,3-dihydro-1H-pyrrolo[3,2-b]pyridin-5-yl}phenyl)methoxy]cyclopentyl}-5-(1-methyl-1H-pyrazol-4-yl)pyridine-3-carboxamide] | > 1000 |  | 100 to 1000 | 100 to 1000
